Consider one compound from paper PMC9227781, “Inhibitors of O-Acetylserine Sulfhydrylase with a Cyclopropane-Carboxylic Acid Scaffold Are Effective Colistin Adjuvants in Gram Negative Bacteria” (Pharmaceuticals, 2022).

In the assay the test system is S. Typhimurium DW378. Nature of the assay: Target engagement: MIC of 12h and colistin in cysK/cysM-inactive mutant strain. In kind it is cell-based, Salmonella enterica serovar Typhimurium. The method, then: In this regard, compound 12h has been selected because of its favorable overall properties. It has been tested at a concentration of 32 μg/mL, in order to ensure complete inactivation of both the OASS isoforms. […] The MIC assays of 12h and colistin alone on the DW378 strain have been performed and they have been compared with those obtained on the WT strain. […] But, on the other hand, the MIC value of colistin was […] lower on the mutant strain than that on the WT, a result that overlapped those achieved with the association of colistin and 12h in WT cells.
MIC values were evaluated following CLSI guidelines with some modifications, as referred to in previous work. Twofold dilutions 25.6–0.05 mg/mL of the tested compounds were performed in DMSO in separate 96-well microtiter U-plates (Greiner, Milan, Italy). In a different 96-well microtiter U-plate, for each well of the replicates, 49 µL of broth medium were added. Then, in each well of the plate, one microliter of each compound at variable dilution in DMSO was added. For each test, three independent experiments with three replicates each were performed.
Antimicrobial activity of associations between the different compounds and colistin (Sigma-Aldrich, St. Louis, MO, USA, lot n. 049M-4836 V) was tested with checkerboard assay with minor modifications, as mentioned in the previous work. For each assay, three experiments with three replicates each were assessed. For each compound tested concentration, 96-wells microtiter U-plates were prepared with twofold serial dilutions of colistin in MHB starting from the MIC value (µg/mL) for ten consecutive dilutions in 50 µL of broth. In each well of the same replicate, 1 µL of each compound in DMSO was added at a fixed concentration, 100 times higher than the final desired concentration (3.2; 1.6; 0.8 mg/mL). Subsequently, 49 µL of the bacterial suspension at a concentration of 10^6 CFU/mL, adjusted spectrophotometrically as reported above, was added to each well, reaching the final bacterial concentration of 5 × 10^5 CFU/mL. Growth and sterility controls were performed for each experiment and for each replicate. Finally, the plates were incubated at 37 °C in aerobic atmosphere for 24 h. After incubation, plates were read by unaided eye with a microtiter reading mirror and then the OD of each well of the plates was measured spectrophotometrically at 620 nm. MIC values were calculated as the arithmetic mean ± SD of the unaided eye reading and the inhibition of growth for each tested dilution was calculated from the OD values (mean ± SD).
* This strain is defective for the expression of cysK and cysM genes, encoding for isozymes OASS-A and B. The genotypes of this strain are trpC109, cysK1772, and cysM1770. […]

On to `CCOC(=O)C1(Cc2ccc(C)cc2)CC1c1cccc(N2CC(C)OC(C)C2)c1` (stereo not drawn) [Compound 12h, trans-ethyl 2-(3-(2,6-dimethylmorpholino)phenyl)-1-(4-methylbenzyl)cyclopropanecarboxylate], for which, for the setting “Salmonella enterica, TYPHIMURIUM, 12 h, read-out: MIC 12h (μg/mL)”, the MIC was greater than 512 µg/mL. Moreover, the “MIC Colistin” value (colistin in combination with 12h at 32 μg/mL, DW378 mutant strain) was determined as 0.141 ± 0.09 µg/mL.
